The results in this text go back to US8436043B2 (Takeda Pharmaceutical Company Limited, priority 2008, dated 2013).

Test [1] deals with T1, human glucagon receptor (Homo sapiens, UniProt P47871).
T1 construct: made in house; host or cells: FreeStyle CHO cells, transient transfection with pMSRαneo/hGCGR; membrane fraction (35,000 rpm pellet)
Kind of test: Glucagon binding inhibitory activity ([125I]-glucagon binding to glucagon receptor membrane protein). Conditions: for IC50: human glucagon receptor membrane protein, [125I]-glucagon, 90 min room temperature; for inhibition at 10 µM: read-out: inhibitory rate (%) at 10 μM. The procedure, abridged: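 Receptor source was a membrane fraction of transiently transfected CHO cells bearing human receptor; 90 min room-temperature binding, filtration harvest, scintillation counting.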

Test [2] concerns glucagon-induced blood glucose increase. Kind of test: Suppressive action test for glucagon-induced blood glucose increase (rat). It counts as in vivo. The note with it: SD rats male, 10 mg/kg oral, glucagon 15 μg/kg s.c. 60 min later, blood glucose 20 min after glucagon. As for the experimental part: Suppressive Action Test for Glucagon-Induced Blood Glucose Increase (Rat)
Full feeding SD rats (male, 7- to 9-week-old) were fasted, 0.5% methylcellulose suspension containing a test compound (10 mg/kg body weight) (compound administration group, 5 rats per group) or 0.5% methylcellulose suspension (compound non-administration group, 12 rats, per group) was orally administered, and 60 min later, glucagon (15 μg/kg body weight, Novo Nordisk Pharma Ltd.) was subcutaneously administered. At 20 min from the glucagon administration, blood samples were collected from the rat tail vein and the blood glucose was measured using a self-testing glucose kit ACCU-CHEK (Roche Diagnostics K.K.). In addition, as a non-treatment group (5 rats per group), the blood glucose of rat (compound non-treatment group) free of glucagon administration was measured in the same manner as above.
The difference between the blood glucose of compound non-administration group or compound administration group and the blood glucose of non-treatment group was calculated. The percentage of “the difference between blood glucose of compound administration group and blood glucose of non-treatment group” was obtained as “blood glucose increase rate (% of control)” where “the difference between blood glucose of compound non-administration group and that of non-treatment group” is 100%.

[3] abbreviates: test compound 10 μM, 0.4% DMSO = 0%, non-labeled glucagon 1 μM = 100%.

T1 sequence (P47871 26-477): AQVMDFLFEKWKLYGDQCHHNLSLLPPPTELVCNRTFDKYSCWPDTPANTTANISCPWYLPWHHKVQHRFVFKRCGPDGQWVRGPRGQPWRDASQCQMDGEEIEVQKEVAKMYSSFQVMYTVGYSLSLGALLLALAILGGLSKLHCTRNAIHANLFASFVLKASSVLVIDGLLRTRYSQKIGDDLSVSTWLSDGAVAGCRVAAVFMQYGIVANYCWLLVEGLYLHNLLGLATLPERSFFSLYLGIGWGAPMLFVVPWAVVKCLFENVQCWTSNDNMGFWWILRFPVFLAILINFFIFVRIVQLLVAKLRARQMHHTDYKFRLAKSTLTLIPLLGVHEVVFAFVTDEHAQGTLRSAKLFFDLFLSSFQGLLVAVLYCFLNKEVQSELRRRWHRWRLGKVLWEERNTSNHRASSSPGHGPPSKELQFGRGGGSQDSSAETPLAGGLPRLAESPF

As a reminder, the IC50 is the midpoint of a concentration-inhibition curve. Low readings indicate greater potency in that assay, high ones weaker potency in that assay. `Cc1c(C(Nc2ccc(C(=O)N(C)CCC(=O)O)cn2)C2CCCCC2)oc2ccc(F)cc12` (single isomer, unassigned) [Example A53, 3-{[(6-{[cyclohexyl(5-fluoro-3-methyl-1-benzofuran-2-yl)methyl]amino}pyridin-3-yl)carbonyl](methyl)amino}propanoic acid] had an IC50 in test [1] of 570 nM. Also, the inhibition at 10 µM in test [1] (setting [3]) amounted to 83%. For the same compound, the “blood glucose increasing rate (% of control)” value in test [2] was 27.4 % of control.
On to `CCC(CC)C(Nc1ccc(C(=O)N(C)CCC(=O)O)cc1)c1oc2ccc(F)cc2c1C` (single isomer, unassigned) [Example A73, 3-{[(4-{[2-ethyl-1-(5-fluoro-3-methyl-1-benzofuran-2-yl)butyl]amino}phenyl)carbonyl](methyl)amino}propanoic acid], for which, in test [1], the half-maximal inhibitory concentration (IC50) came out at 900 nM. Also, the inhibition at 10 µM in test [1] (setting [3]) is 87%. In addition, the “blood glucose increasing rate (% of control)” value in test [2] is given as 24.2 % of control.
On the same counts, the results for `Cc1c(C(Nc2ccc(C(=O)N(C)CCC(=O)O)cc2)C2CCCCC2)oc2ccc(OC3CCOCC3)cc12` (single isomer, unassigned) [Example A83, 3-[{[4-({cyclohexyl[3-methyl-5-(tetrahydro-2H-pyran-4-yloxy)-1-benzofuran-2-yl]methyl}amino)phenyl]carbonyl}(methyl)amino]propanoic acid] are 84 nM, 93% and 43.0 % of control.
On to `Cc1c(C(Nc2ccc(C(=O)N(C)CCC(=O)O)cc2)C2CCCCC2)oc2ccccc12` (stereo not drawn) [Example A41], for which the “inhibitory rate (%) at 10 μM” value in test [1] (setting [3]) was 86%. Besides, the “blood glucose increasing rate (% of control)” value in test [2] is 16.6 % of control.
For `Cc1c(C(Nc2ccc(C(=O)N(C)CCC(=O)O)cc2)C2CCCCC2)oc2ccc(OCC3(C)COC3)cc12` (stereo not drawn) [Example A196, 3-[({4-[(cyclohexyl{3-methyl-5-[(3-methyloxetan-3-yl)methoxy]-1-benzofuran-2-yl}methyl)amino]phenyl}carbonyl)(methyl)amino]propanoic acid], in test [1] (setting [3]), the inhibition at 10 µM turned out to be 87%.
Take `Cc1c(C(Nc2ccc(C(=O)N(C)CCC(=O)O)cc2)C2CCCCC2)oc2ccc(Oc3ncccc3C#N)cc12` (stereo not drawn) [Example A198, 3-{[(4-{[{5-[(3-cyanopyridin-2-yl)oxy]-3-methyl-1-benzofuran-2-yl}(cyclohexyl)methyl]amino}phenyl)carbonyl](methyl)amino}-propanoic acid]: in test [1] (setting [3]), the inhibition at 10 µM came out at 87%.
Take `Cc1c(C(Nc2ccc(C(=O)N(C)CCC(=O)O)cc2)C2CCCCC2)oc2ccc(OC3CCS(=O)(=O)CC3)cc12` (stereo not drawn) [Example A199, 3-[({4-[(cyclohexyl{5-[(1,1-dioxidotetrahydro-2H-thiopyran-4-yl)oxy]-3-methyl-1-benzofuran-2-yl}methyl)amino]phenyl}carbonyl)(methyl)amino]propanoic acid]: the inhibition at 10 µM in test [1] (setting [3]) amounted to 88%.
The same measure, in the same setting: as for `Cc1c(C(Nc2ccc(C(=O)N(C)CCC(=O)O)cc2)C2CCCCC2)oc2ccc(Oc3ccccn3)cc12` (stereo not drawn) [Example A200, 3-[{[4-({cyclohexyl[3-methyl-5-(pyridin-2-yloxy)-1-benzofuran-2-yl]methyl}amino)phenyl]carbonyl}(methyl)amino]propanoic acid], the figure is 89%; as for `Cc1c(C(Nc2ccc(C(=O)N(C)CCC(=O)O)cc2)C2CCCCC2)oc2ccc(Oc3ccc(C#N)cn3)cc12` (stereo not drawn) [Example A202, 3-{[(4-{[{5-[(5-cyanopyridin-2-yl)oxy]-3-methyl-1-benzofuran-2-yl}(cyclohexyl)methyl]amino}phenyl)carbonyl](methyl)amino}-propanoic acid], 86%.
The same measure, in the same setting: as for `Cc1c(C(Nc2ccc(C(=O)N(C)CCC(=O)O)cc2)C(C)C)oc2ccc(OC3CCSCC3)cc12` (stereo not drawn) [Example A204, 3-(methyl{[4-({2-methyl-1-[3-methyl-5-(tetrahydro-2H-thiopyran-4-yloxy)-1-benzofuran-2-yl]propyl}amino)phenyl]carbonyl}amino)propanoic acid], the figure is 86%; as for `Cc1c(C(Nc2ccc(C(=O)N(C)CCC(=O)O)cc2)C(C)C)oc2ccc(Oc3ccc(C(F)(F)F)cn3)cc12` (stereo not drawn) [Example A206, 3-{methyl[(4-{[2-methyl-1-(3-methyl-5-{[5-(trifluoromethyl)pyridin-2-yl]oxy}-1-benzofuran-2-yl)propyl]amino}phenyl)carbonyl]amino}propanoic acid], 70%; as for `Cc1c(C(Nc2ccc(C(=O)N(C)CCC(=O)O)cc2)C2CCCC2)oc2c(F)cc(F)cc12` (stereo not drawn) [Example A208, 3-{[(4-{[cyclopentyl(5,7-difluoro-3-methyl-1-benzofuran-2-yl)methyl]amino}phenyl)carbonyl](methyl)amino}propanoic acid], 83%.
Same read-out and setting: as for `Cc1c(C(Nc2ccc(C(=O)N(C)CCC(=O)O)cc2)C2CCCCC2)oc2ccc(OCC3CCCO3)cc12` (stereo not drawn) [Example A209, 3-[{[4-({cyclohexyl[3-methyl-5-(tetrahydrofuran-2-ylmethoxy)-1-benzofuran-2-yl]methyl}amino)phenyl]carbonyl}(methyl)amino]propanoic acid], the figure is 90%; as for `Cc1c(C(Nc2ccc(C(=O)N(C)CCC(=O)O)cn2)C(C)C)oc2ccc(OCC3CC3)cc12` (stereo not drawn) [Example A211, 3-[{[6-({1-[5-(cyclopropylmethoxy)-3-methyl-1-benzofuran-2-yl]-2-methylpropyl}amino)pyridin-3-yl]carbonyl}(methyl)amino]propanoic acid], 70%; as for `Cc1c(C(Nc2ccc(C(=O)N(C)CCC(=O)O)nc2)C(C)C)oc2ccc(OCC3CC3)cc12` (stereo not drawn) [Example A213, 3-[{[5-({1-[5-(cyclopropylmethoxy)-3-methyl-1-benzofuran-2-yl]-2-methylpropyl}amino)pyridin-2-yl]carbonyl}(methyl)amino]propanoic acid], 70%.
In the case of `COc1c(C(Nc2ccc(C(=O)N(C)CCC(=O)O)cc2)C2CCCCC2)oc2ccc(F)cc12` (stereo not drawn) [Example A214, 3-{[(4-{[cyclohexyl(5-fluoro-3-methoxy-1-benzofuran-2-yl)methyl]amino}phenyl)carbonyl](methyl)amino}propanoic acid], in test [1] (setting [3]), the inhibition at 10 µM is 75%.
On the same count and under the same terms, as for `COc1ccc2c(C(Nc3ccc(C(=O)N(C)CCC(=O)O)cc3)C3CCCCC3)c(C)oc2c1` (stereo not drawn) [Example A215, 3-{[(4-{[cyclohexyl(6-methoxy-2-methyl-1-benzofuran-3-yl)methyl]amino}phenyl)carbonyl](methyl)amino}propanoic acid], the figure is 72%.
